# Reference: patent publication US20240117385A1, “ENZYMES OF LUCIFERIN BIOSYNTHESIS AND USE THEREOF” (LIGHT BIO, INC., priority 2018, published 2024)
# B1: SEQ ID NO: 135: plant type III polyketide synthase (PKS) (protein, listed as Wachendorfia thyrsiflora)
# chain: MASTEGIQAYRNNMAEGPATIMAIGTANPPNVVDASTFPDYYWRVTNSEHLSPEYRVKLKRICERSSIRKRHLVLTEQLLKENPTLTTYVDASYDERQSIVLDAVPKLACEAAAKAIKEWGRPKTDITHMVVCTGAGVDVPGVDYKMMNLLGLPPTVNRVMLYNVGCHASGTVLRIAKDLAENNKGARVLVVSSEVSVMFFRGPAEGDVEILLGQALFGDGSAAIIVGADPIEGVEKPIFQIFSASQMTLPEGEHLVAGHLRELGLTFHLKPQLPNTVSSNIHKPLKKAFEPLNITDWNSIFWIVHPGGRAILDQVQEKIGLEENKLDVSRYVLAENGNMMSASVFFIMDEMRKRSAAQGCSTTGEGHEWGVLFGFGPGLSIETVVLHSVPLSI
# Tested on: hispidin-synthase and caffeylpyruvate hydrolase with Neonothopanus nambi luciferase and hispidin hydroxylase
# Test: Luminescence with recombinant hispidin-synthase, caffeylpyruvate hydrolase, luciferase and hispidin hydroxylase
# Format: biochemical
# Details: 0.2 μM
# Procedure: The obtained enzymes were used for obtaining luminescence (bioluminescence) in reaction with Neonothopanus nambi luciferase and hispidin hydroxylase, obtained according to Example 4. 5 μl of each isolated recombinant protein solution were put into a glass tube, comprising 100 μl of the buffer (0.2 M of Na-phosphate buffer, 0.5 M of Na2SO4, 0.1% dodecylmaltoside (DDM) pH 8.0), 1 mM of NADPH (Sigma-Aldrich, USA), 10 mM of ATP (ThermoFisher Scientific, USA), 1 mM of CoA (Sigma-Aldrich, USA), 1 mM of malonyl-CoA (Sigma-Aldrich, USA) and 0.2 μM of one of 3-arylacrylic acids: paracoumaric acid (Sigma-Aldrich, USA), cinnamic acid (Sigma-Aldrich, USA) or ferulic acid (Abcam, USA). In the other experiment instead of substituted 3-arylacrylic acid the analogues of fungal oxyluciferin—(2E,5E)-2-hydroxy-6-(4-hydroxyphenyl)-4-oxohexa-2,5-diene, (2E,5E)-2-hydroxy-4-oxo-6-phenylhexa-2,5-diene, or (2E,5E)-2-hydroxy-6-(4-hydroxy-3-methoxyphenyl)-4-oxohexa-2,5-diene acids—also at concentration of 0.2 μM were put into a glass tube. The glass tubes were placed into a luminometer.
row,Molecule,luminescence in reaction
1,"O=C(/C=C/c1ccccc1)/C=C(/O)C(=O)O [(2E,5E)-2-hydroxy-4-oxo-6-phenylhexa-2,5-diene acid]",resulted in luminescence
2,"COc1cc(/C=C/C(=O)/C=C(/O)C(=O)O)ccc1O [(2E,5E)-2-hydroxy-6-(4-hydroxy-3-methoxyphenyl)-4-oxohexa-2,5-diene acid]",resulted in luminescence
3,"O=C(/C=C/c1ccc(O)cc1)/C=C(/O)C(=O)O [(2E,5E)-2-hydroxy-6-(4-hydroxyphenyl)-4-oxohexa-2,5-diene acid]",resulted in luminescence
4,O=C(O)/C=C/c1ccccc1 [cinnamic acid],resulted in luminescence
5,COc1cc(/C=C/C(=O)O)ccc1O [ferulic acid],resulted in luminescence
6,O=C(O)/C=C/c1ccc(O)cc1 [paracoumaric acid],resulted in luminescence

# Tested on: recombinant hispidin hydroxylase from Neonothopanus nambi
# Test: HPLC analysis of hydroxylation by recombinant hispidin hydroxylase
# Format: biochemical
# Details: 0.2 μM substrate, 1 mM NADPH, 30 minutes
# Procedure: The isolated recombinant hispidin hydroxylase from Neonothopanus nambi, obtained according to Example 4, was added to reaction mixtures comprising 1 mM of NADPH and 0.2 μM of hispidin, (E)-4-hydroxy-6-styryl-2H-pyran-2-one or (E)-4-hydroxy-6-(4-hydroxystyryl)-2H-pyran-2-one in 100 μl of the buffer (0.2 M of Na-phosphate buffer, 0.5 M of Na2SO4, 0.1% dodecylmaltoside (DDM) pH 8.0). In 30 minutes, the reaction mixture was analyzed by HPLC using synthetic luciferins as standards.
row,Molecule,HPLC detection of hydroxylated product
1,O=c1cc(O)cc(/C=C/c2ccc(O)cc2)o1 [(E)-4-hydroxy-6-(4-hydroxystyryl)-2H-pyran-2-one],occurrence of peaks corresponding to 3d position hydroxylated derivatives
2,O=c1cc(O)cc(/C=C/c2ccccc2)o1 [(E)-4-hydroxy-6-styryl-2H-pyran-2-one],occurrence of peaks corresponding to 3d position hydroxylated derivatives

# Tested on: luciferase and hispidin hydroxylase of Neonothopanus nambi
# Test: Hispidin hydroxylase with hispidin analogues in cell lysate
# Format: biochemical
# Details: 660 μg/ml, 1 mM NADPH, pH 8.0
# Procedure: HEK293NT cells, expressing luciferase and hispidin hydroxylase of Neonothopanus nambi, obtained according to Example 2, were rinsed from Petri dishes 24 hours after transfection with Versene solution laced with 0.025% of trypsin, the medium was replaced by phosphate-buffered saline with pH 8.0 by centrifugation, the cells were resuspended, lysed by ultrasound in Bioruptor (Diagenode, Belgium) with in 7 minutes at 0° C. in conditions recommended by the manufacturer, and 1 mM of NADPH (Sigma-Aldrich, USA), and also hispidin or one of its analogues were added to the medium: (E)-4-hydroxy-6-(4-hydroxystyryl)-2H-pyran-2-one, (E)-6-(2-(1H-indol-3-yl)vinyl)-4-hydroxy-2H-pyran-2-one, (E)-6-(2-(1,2,3,5,6,7-hexahydropyrido[3,2,1-ij]quinolin-9-yl)vinyl)-4-hydroxy-2H-pyran-2-one, E)-6-(4-(diethylamino)styryl)-4-hydroxy-2H-pyran-2-one, or (E)-4-hydroxy-6-(2-(6-hydroxynaphthalene-2-yl)vinyl)-2H-pyran-2-one at concentration of 660 μg/ml. Bioluminescence spectra were detected by spectrofluorometer Varian Cary Eclipse. […] Depending on luciferin used the expected displacement of luminescence peak was observed.
row,Molecule,Luminescence in lysates
1,O=c1cc(O)cc(/C=C/c2ccc3cc(O)ccc3c2)o1 [(E)-4-hydroxy-6-(2-(6-hydroxynaphthalene-2-yl)vinyl)-2H-pyran-2-one],Luminescence in lysates was observed
2,O=c1cc(O)cc(/C=C/c2ccc(O)cc2)o1 [(E)-4-hydroxy-6-(4-hydroxystyryl)-2H-pyran-2-one],Luminescence in lysates was observed
3,"O=c1cc(O)cc(/C=C/c2cc3c4c(c2)CCCN4CCC3)o1 [(E)-6-(2-(1,2,3,5,6,7-hexahydropyrido[3,2,1-ij]quinolin-9-yl)vinyl)-4-hydroxy-2H-pyran-2-one]",Luminescence in lysates was observed
4,O=c1cc(O)cc(/C=C/c2c[nH]c3ccccc23)o1 [(E)-6-(2-(1H-indol-3-yl)vinyl)-4-hydroxy-2H-pyran-2-one],Luminescence in lysates was observed
5,CCN(CC)c1ccc(/C=C/c2cc(O)cc(=O)o2)cc1 [(E)-6-(4-(diethylamino)styryl)-4-hydroxy-2H-pyran-2-one],Luminescence in lysates was observed

# Tested on: Pichia pastoris GS115 yeast cells expressing luciferase, hispidin hydroxylase and coumarate-CoA ligase 1
# Test: Screening of PKS for hispidin-synthase activity in yeast colonies sprayed with caffeic acid
# Format: cell-based
# Details: colonies sprayed with caffeic acid solution
# From the text: The selected nucleotide sequences for expression in Pichia pastoris yeast cells and Nicotiana benthamiana plant cells were optimized. The resulting nucleic acids were obtained synthetically and cloned into pGAPZ vector and used for verifying ability of the expressed proteins to synthesize hispidin.
# For this purpose, in genome of Pichia pastoris GS115 yeast line, constitutively expressing Neonothopanus nambi luciferase and hispidin hydroxylase, obtained according to Example 1, there was additionally introduced pGAPZ plasmid, comprising gene of
# Arabidopsis thaliana coumarate-CoA ligase 1 (which nucleotide and amino acid sequence are shown in SEQ ID NOs: 140, 141), also obtained by oligonucleotide synthesis. The plasmid was linearized at restriction site AvrII and used for transformation into Pichia pastoris GS115 cells.
# The obtained yeast cells, constitutively expressing Neonothopanus nambi luciferase and hispidin hydroxylase and Arabidopsis thaliana coumarate-CoA ligase 1, were […] by plasmids comprising coding PKS sequences, and dispersed in Petri dishes with RDB medium, comprising 1 M of sorbitol, 2% (weight/volume) of glucose, 1.34% (weight/volume) of yeast nitrogen base (YNB), 0.005% (weight/volume) of amino acids mixture, 0.00004% (weight/volume) of biotin and 2% (weight/volume) of agar. To identify enzymes having hispidin-synthase activity, the obtained colonies were sprayed with caffeic acid solution, detecting hispidin-synthase presence in cells by occurrence of luminescence. Luminescence emitted by colonies was detected by means of IVIS Spectrum CT (Perkin Elmer, USA). Yeast line constitutively expressing luciferase, hispidin hydroxylase and coumarate-CoA ligase 1, and also wild yeast cells were used as negative control. […] Amino acid sequences coded by then are shown in SEQ ID NOs: 119, 121, 123, 125, 127, 129, 131, 133, 135, 137, 139 respectively.
row,Molecule,hispidin-synthase activity
1,B1,had hispidin-synthase activity
